# Experimental data: patent publication US6080780A, “Use of nitroflavonoids for the treatment of anxiety” (University of Strathclyde, priority 1995, dated 2000)
# Read-outs that look alike come from different tables or passages of the source.
# Key:
# [1] = molecular target: central benzodiazepine receptor; assay: [3H]-FNZ binding to crude synaptosomal membranes from rat CNS regions; set-up: species or system rat (Wistar)
# Description: (§1) Adult male Wistar rats weighing 250 g were used for biochemical experiments. Adult male Swiss male weighing 25-30 g were used for pharmacological assays except for inhibitory avoidance and tail flick tests were done in rats. Animals were housed in a controlled environment, with free access to food and water and maintained on a 12 h/12 h day/night cycle.
# Displacement curves were performed using [^3 ]-FNZ or [^3 H]-zolpidem ([^3 H]-ZOLP) as radioligands in washed crude synaptosomal membranes from rat cerebral cortex, cerebellum, hippocampus, striatum or spinal cord. Membrane preparations were carried out according to Medina et al. (1990). Briefly, brains were rapidly dissected out on ice and the different structures were homogenized in 10 volumes of 0.32 M sucrose and centrifuged at 900×g for 10 min. The resulting supernatant was centrifuged at 100,000×g for 30 min and the pellet washed twice in 25 mM Tris HCl buffer pH 7.4 at 100,000×g for 30 min, and stored at -20° C. until used.
# For [^3 H]-FNZ (84 Ci/mmol, NEN) displacement curves, different concentrations of DNF (0.3 nM to 1 μM) were added to 0.3 mg membrane protein suspended in 1 ml of 25 mM Tris HCl buffer in presence of 0.6 nM of the radioligand. Protein determination was carried out by using the method of Lowry et al. (1951). Nonspecific binding (<5%) was determined in parallel incubations with 10 μM FNZ (Hoffmann-La Roche). The incubation was carried out at 4° C. for 2 h. The assays were determined by filtration under vacuum through Whatman GF/A glass fiber filters, and two washes with 3 ml each of incubation medium. Filters were dried and counted after the addition of 5 ml 2,5-diphenyl-oxazole (PPO)-xylene as scintillation fluid.
# mice [2] = assay: Pentylenetetrazole (PTZ)-induced seizures; assay type: in vivo
# Description: The effects of DNF on pentylenetetrazole (PTZ)--induced convulsions were evaluated according to Medina et al., (1990) with slight modifications. PTZ (200 mg/kg) was administered i.p. to mice 15 min after injection of drug or vehicle. The number of mice presenting clonic convulsions was determined.
# Data are expressed as the percentage of mice presenting clonic or tonic-clonic seizures. ^3 number of animals per group.
# mice [3] = assay: Horizontal wire test in mice; assay type: in vivo, male Swiss mice; details: mice, i.p.
# Description: as §1
# This test was carried out as previously described (Viola et al., 1994; Wolfman et al., 1994; Viola et al., 1995). The test took place after two trials, performed at 5 min intervals. A myorelaxant drug will impair mice to grasp the wire (Bonetti et al., 1982). The effect of DNF )1 mg/kg) on DZ-induced myorelaxation was also determined.
# mice [4] = assay: Elevated plus-maze test in mice (Section 1, incl. Table 1); assay type: in vivo, male Swiss mice; details: Mus musculus, ip, read-out: minimum dose necessary to produce similar anxiolytic effects
# Description: Performance of mice on the elevated plus-maze test was used to measure anxiolytic actions in rodents, following i.p. administration of vehicle or compound (II).
# The animals used in the pharmacological test were male Swiss mice from breeding stock, weighing 28-35 g. They were placed n groups of ten with free access to water and food, and maintained on 12 h/12 h day/night cycle. In all the tests the mice were i.p. injected with VEH or a solution of the drug, 15 minutes before the assay.
# The elevated plus-maze set-up consisted of a maze of two open arms, 25×5 cm, crossed by two closed arms of the same dimensions, with free access to all arms from the crossing point. The closed arms had walls 35 cm high all around. The maze was suspended 50 cm from the room floor. Mice were placed on the central part of the cross facing an open arm. The number of entries and the time spent going into open and closed arms were counted during 5 minutes. […] The total exploratory activity (number of entries in both arms) was also determined.
# mice [5] = assay: Holeboard test in mice; assay type: in vivo, male Swiss mice; details: mice, 1 mg/kg; vehicle=8.5±1.2, p<0.001
# Description: as §1
# The test was performed according to Viola et al. (1994) and Wolfman et al. (1994). The number of head dips and the time spent head dipping were counted during 5 min.
# mice [6] = assay: Elevated plus maze test in mice (Section 2); assay type: in vivo, male Swiss mice; details: mice
# Description: as §1
# An Opto-varimex® apparatus was used according to Viola et al. (1994). The apparatus discriminates between total and ambulatory activities. An increase in the number of transitions through the beams reflects augmented locomotor activity. In this and all following tests in mice, animals were i.p. injected with the vehicle, or with DNF 20 min before the beginning of the tests. In each session, control mice were tested in parallel with those animals receiving drug treatment.
# The test was performed in the same session immediately after the locomotor activity measurement (Viola et al., 1994; Wolfman et al., 1994). […] A series of experiments with the injection of the selective central benzodiazepine receptor antagonist Ro 15-1788 (File and Pellow, 1986) was also carried out.
# [7] = molecular target: central benzodiazepine receptors (BDZ-Rs); assay: 3H-FNZ binding to rat brain synaptosomal membranes (Section 3)
# Description: In brief, for each assay, triplicate samples of the membranes, containing 0.2 to 0.4 mg protein were suspended in a final volume of 1 mL of 0.25 mM Tris--HCl buffer, pH 7.3. The incubation was carried out at 4° C. for 60 min with 0.6 nM ^3 H--FNZ. to study the binding saturation, a range of 0.3 to 10 nM ^3 H--FNZ was used. […] The assays were terminated by filtration under vacuum through Whatman GF/A glass-fiber filters, and three washes with 3 mL each of incubation medium. Filters were dried and counted after the addition of 5 mL of 2,5-diphenyloxazole/xylene as scintillation fluid.
# The binding of ^3 H--FNZ was carried out as for (i) above.
# GABAA receptors = assay: 3H-muscimol binding, compound (IV); details: 10 μM
# mice [8] = assay: Elevated plus-maze, compound (IV); assay type: in vivo, male Swiss mice; details: i.p., 0.1 mg/kg, preliminary
# Description: The animals used in the pharmacological test were male Swiss mice from our breeding stock, weighting 28-35 g. They were placed in groups of ten with free access to water and food, and maintained on 12 h/12 h day/night cycle. The elevated plus-maze set-up consisted of a maze of two open arms, 25×5 cm, crossed by two closed arms of the same dimensions, with free access to all arms from the crossing point. The closed arms had walls 35 cm high all around. The maze was suspended 50 cm from the room floor. Mice were placed on the central part of the cross facing an open arm. The number of entries and the time spend going into open and closed arms were counted during 5 min. A selective increase in the parameters corresponding to open arms revels an anxiolytic effect. The total exploratory activity (number of entries in both arms) was also determined according to the method of Pellow, S. J. et al. Neurosci. Meth. 1986, 14, 149; Lister, R. G. Psychopharmacology 1987, 92, 180).
# [9] = tested on: cholinergic-muscarinic receptors; assay type: binding; details: 10 μM
# serotonin 1A receptors = assay: 3H-8-OH-DPAT binding, compound (IV); details: 10 μM
# AMPA-glutamate receptors = assay: 3H-AMPA binding, compound (IV); details: 10 μM
# [10] = molecular target: benzodiazepine (BDZ-R) receptor; assay: 3H-Flunitrazepam binding to extensively washed bovine cerebral cortical membranes; details: read-out: Ki, inhibition of 3H-FNZ binding; bovine cerebral cortical membranes; 0.6 nM 3H-FNZ, 4° C., 60 min; n=3
# Description: Non-specific nitration of the flavone nucleus yielded the two nitrated flavone (II) and (IIa). […] Briefly, ^3 H-FNZ binding was carried out as described by Levy de Stein, M., Medina, J. H., De Robertis E., Mol. Brain Res. 1985, 5, 9-15. In brief, for each assay, triplicate samples of the membranes, containing 0.2 to 0.4 mg protein were suspended in a final volume of 1 mL of 0.25 mM Tris-HCl buffer, pH 7.3. The incubation was carried out at 4° C. for 60 minutes with 0.6 nM ^3 -FNZ. To study the binding saturation, a range of 0.3 to 10 nM ^3 H-FNZ was used. Non-specific binding was determined in parallel incubations in the presence of 3 μM FNZ, and represented 5-15% of total. The assays were terminated by filtration under vacuum though Whatman GF/A glass-fiber filters, and three washes with 3 mL each of incubation medium. Filters were dried and counted after the addition of 5 mL of 2,5-diphenyloxazole/xylene as scintillation fluid. Bovine cerebral cortical membranes were treated substantially following the method of Medina, J. H., De Robertis, E. J., J. Neurochem. 1985, 44, 1340-1345.
# [11] = rat cerebral cortex, read-out: Ki, 3H-FNZ binding
structure (smiles),measurement,setting,value
"CN1C(=O)CN=C(c2ccccc2)c2cc(Cl)ccc21 [Diazepam, reference compound]",Ki,"[1]; all the brain regions studied, read-out: Ki, [3H]-FNZ binding",~7 nM
same,% of convulsing mice,"mice [2]; DZ 0.3 mg/kg, n=6, p<0.001 (VEH + PTZ 96)",33.3%
same,% of convulsing mice,"mice [2]; DZ 1.0 mg/kg, n=12, p<0.001",42%
same,% of convulsing mice,"mice [2]; DZ 3.0 mg/kg, n=9, p<0.001",0%
same,anticonvulsant activity vs PTZ,"mice [2]; mice, 0.3-3 mg/kg, p<0.001, PTZ 200 mg/kg",showed anticonvulsant activity
same,myorelaxant effect,mice [3]; 1 mg/kg,marked myorelaxant effect
same,animals showing myorelaxant effect,mice [3]; DZ 1 mg/kg,8 animals out of 10
same,minimal effective dose,mice [4],0.03 mg/kg
same,head dips,mice [5],1.2±0.5
same,dose needed to increase open arm entries relative to DNF,mice [6],10-100 times higher
same,percentage of open arm entries,"mice [6]; 0.3 mg/kg, vehicle=22.9±2.0%, p<0.05",35.0±4.5%
"O=c1cc(-c2ccc([N+](=O)[O-])cc2)oc2ccc(Br)cc12 [Compound (V), 6-bromo-4'-nitroflavone]",Ki,[7]; [11],220 nM
"O=c1cc(-c2cccc([N+](=O)[O-])c2)oc2ccccc12 [(VI), 3'-nitroflavone]",Ki,[7]; [11],250 nM
"O=c1cc(-c2cccc([N+](=O)[O-])c2)oc2ccc(F)cc12 [(IX), 6-Fluoro-3'-nitroflavone]",Ki,[7]; [11],170 nM
"Cc1nnc2ccc(-c3cccc(C(F)(F)F)c3)nn12 [CL 218,872, reference compound]",Ki,"[1]; cortical membranes, high affinity site, read-out: high affinity Ki value",10 nM
same,Ki,"[1]; cortical membranes, low affinity site, read-out: low affinity Ki value",1200 nM
"O=c1cc(-c2ccccc2[N+](=O)[O-])oc2ccc(Br)cc12 [Compound (III), 6-bromo-2'-nitroflavone]",Ki,[7]; [11],208 nM
"O=c1cc(-c2cccc([N+](=O)[O-])c2)oc2ccc(Cl)cc12 [(VIII), 6-Chloro-3'-nitroflavone]",Ki,[7]; [11],8 nM
"O=c1cc(-c2cccc([N+](=O)[O-])c2)oc2ccc(Br)cc12 [Compound (IV), 6-bromo-3'-nitroflavone]",displacement of [3H]-muscimol binding,GABAA receptors,does not displace
same,percentage of entries in the open arms,mice [8],increasing both the percentage of entries in the open arms
same,time spent in the open arms,mice [8],increasing both the percentage of entries in the open arms and the time spent in these arms
same,displacement of 3H-QNB binding,[9],does not displace
same,displacement of 3H-8-OH-DPAT binding,serotonin 1A receptors,does not displace
same,Ki,"[7]; cerebellum, n=4, read-out: Ki SEM, 3H-FNZ binding",3.6 ± 0.1 nM
same,Ki,"[7]; cerebral cortex, first (high affinity) population of sites, n=6, read-out: Ki SEM, 3H-FNZ binding",1.2 nM
same,Ki,"[7]; cerebral cortex, second population of sites, n=6, read-out: Ki SEM, 3H-FNZ binding",15.5 nM
same,Scatchard analysis of 3H-FNZ saturation curves,"[7]; cerebral cortical membranes, data not shown",competitive ligand for the BDZ-R
same,Ki,"[7]; hippocampus, n=2, read-out: Ki SEM, 3H-FNZ binding",9.6 ± 0.6 nM
same,Ki,[7]; [11],220 ± 1 nM
same,affinity in spinal cord vs highest value in cerebral cortex,[7]; ratio,10 times lower
same,"potency for displacement of 3H-FNZ, type II BDZ-R regions vs cerebellum",[7]; ratio,3-4 times lower
same,Ki,"[7]; spinal cord, n=3, read-out: Ki SEM, 3H-FNZ binding",12.7 ± 0.5 nM
same,Ki,"[7]; striatum, n=3, read-out: Ki SEM, 3H-FNZ binding",9.8 ± 1.6 nM
same,displacement of 3H-AMPA binding,AMPA-glutamate receptors,does not displace
"O=c1cc(-c2ccc([N+](=O)[O-])cc2)oc2ccc([N+](=O)[O-])cc12 [(IIa), 6,4'-Dinitroflavone]",Ki,[10],17000 ± 5000 nM
